# From patent publication US10583094B2
# Assays:
# SUR1 = SUR1 knockdown by antisense ODN infusion at gelfoam implantation site; R1 astrocyte response to Na azide; type: cell-based, rat; conditions: for Depolarization of R1 astrocytes on Na azide: Na azide 1 mM
# Text: To further test involvement of SUR1, SUR1 expression was “knocked down” in situ by infusing oligodeoxynucleotide (ODN) for 14 days using a mini-osmotic pump, with the delivery catheter placed in the gelfoam implantation site in the brain, in the otherwise standard model we use for R1 astrocyte isolation ([…] et al., 1980, […] et al., 2002, […] et al., 2000, […] et al., 1999). Knockdown of SUR1 expression (SUR1KD) was achieved using antisense (AS; [NT] ID NO: 9)) (Yokoshiki et al., 1999) oligodeoxynucleotide (ODN), with scrambled ([…] ID NO: 10)) ODN being used as control. […] In R1 astrocytes from SUR1KD, however, Na azide had little effect on resting membrane potential (FIG. 24D).
# [1] = test system: freshly isolated R1 astrocytes; experiment: Na azide-induced blebbing and cell death of freshly isolated R1 astrocytes
# MCA stroke (MCE model) [2] = experiment: MCA stroke (MCE model): tissue water content by wet/dry weight; type: in vivo, Wistar rats; conditions: 8 hr after stroke
# Experimental: For large MCA strokes with malignant cerebral edema (MCE), the inventors first embolized microparticles (Nakabayashi et al., 1997) [polyvinyl alcohol (PVA) particles; […] […] TTC(−) portions of the involved hemisphere. […] Of these, 15 rats were used for validation of drug action (mortality, tissue water and glucose) and 5 rats were used for determination of drug distribution. […] For stroke size, stained sections were photographed and images were analyzed (Scion Image) to determine the percent of the involved hemisphere occupied by TTC(−) tissue; no correction for edema was performed. For some determinations of water or SUR1 protein content, individual coronal sections were divided under magnification into 3 parts: (i) the non-involved, control hemisphere; (ii) the TTC(+) portion of the involved hemisphere; (iii) the TTC(−) portion of the involved hemisphere. For each animal, pooled tissues from the 3 parts were then processed for tissue water measurements or for Western blots. Tissue water was quantified by the wet/dry weight method (Hua et al., 2003). Tissue samples were blotted to remove small quantities of adsorbed fluid. Samples were weighed with a precision scale to obtain the wet weight (WW), dried to constant weight at 80° C. and low vacuum, and then reweighed to obtain the dry weight (WD). The percent H2O of each tissue sample was then calculated as (WW-WD)×100/WW.
# MMP-9 & MMP-2 = experiment: Zymography of gelatinase activity of recombinant enzyme and stroke tissue; type: biochemical; conditions: glibenclamide 10 μM; MMP inhibitor II 300 nM
# Experimental: Activation of MMP-9 & MMP-2 in stroke tissue was compared to controls.
# Next, the supernatants underwent a gelatinase purification process with gelatin-Sepharose 4B (Pharmacia), and Zymography was performed on the purified supernatants in sodium dodecyl sulfate gels containing gelatin (Rosenberg, 1994). Dried gels were scanned with a transparency scanner, and images were analyzed by densitometry. The relative lysis of an individual sample was expressed as the integrated density value of its band and divided by the protein content of the sample.
# rodent model of stroke = experiment: Rodent model of stroke, mortality and hemisphere water (Example 9); type: in vivo, rat; conditions: n=5 in each group
# [3] = rat, in vivo
# thromboembolic stroke = experiment: Thromboembolic stroke with rtPA reperfusion at 6 hr: hemorrhagic conversion; type: in vivo, spontaneously hypertensive rats; conditions: rtPA 10 mg/kg i.v. at 6 hr, 24 hr after stroke
# Experimental: A rodent model of thromboembolic stroke was used (Aoki et al., 2002; Kijkhuizen et al., 2001; Kano et al., 2000; Sumii et al., 2002; Tejima et al., 2001). […] Sumii et al., 2002). Rectal temperature was maintained at 37° C. with a thermostat-controlled heating pad. The right femoral artery was cannulated, and physiological parameters, including temperature, mean blood pressure, pH, pO2, and pCO2, glucose were monitored. Temporary focal ischemia was obtained with an embolic model that used allogeneic clots to occlude the MCA. Allogeneic, thrombin-induced, fibrin-rich blood clots were prepared using methods adapted from […] et al. (Asahi et al., 2000; […] et al., 2003; Sumii et al., 2002). Seven clots, 1.5 mm long, were used for embolizing. Using a ventral cervical incision, the internal and external carotid arteries were exposed. The external carotid artery and pterygopalatine arteries were ligated. Removable surgical clips were applied to the common and internal carotid arteries. The modified PE-50 catheter containing the clots was inserted retrograde into the external carotid artery and advanced up to the internal carotid artery. The temporary clips were removed, and the clots were injected. Incisions were closed. […] Physiological parameters, including temperature, mean blood pressure (tail cuff plethysmography), blood gases and glucose were monitored. […]
# MCA stroke (MCE model) [4] = test system: MCA stroke (MCE model); design: species or system Wistar rats; conditions: rat, in vivo, sc
compound,measurement,setting,value
"5′-GGCCGAGTGGTTCTCGGT-3′ (chemistry not given here) [AS-ODN, antisense oligodeoxynucleotide used to knock down SUR1 expression]",Depolarization of R1 astrocytes on Na azide,SUR1,little or no depolarization
same,Depolarization of R1 astrocytes on Na azide,SUR1; listed as SUR1KD,8.7±1.7 mV
same,SUR1 expression in gliotic capsule (immunoblot),"SUR1; ODN infused for 14 days, compared with scrambled ODN",significant reduction in SUR1 expression
same,Membrane blebbing after exposure to Na azide,SUR1; R1 astrocytes,not observed
CC1=NS(=O)(=O)c2cc(Cl)ccc2N1 [diazoxide],Cell morphology (blebbing) on exposure to channel opener,"[1]; phase contrast, observed over 30 min",developed progressive blebbing consistent with cytotoxic edema
COc1ccc(Cl)cc1C(=O)NCCc1ccc(S(=O)(=O)NC(=O)NC2CCCCC2)cc1 [glibenclamide],Rise of water in TTC(+) tissue over uninvolved hemisphere,MCA stroke (MCE model) [2],2.5%
same,Rise of water in involved hemisphere over control hemisphere,MCA stroke (MCE model) [2],2.0%
same,Gelatinase activity in presence of compound,MMP-9 & MMP-2,the same as that assayed without
same,Necrotic death (propidium iodide) induced by Na azide,"[1]; Na azide 1 mM, glibenclamide 1 μM",largely prevented
same,Excess water in stroke hemisphere compared with saline-treated rats,rodent model of stroke,only half as much excess water
same,Serum glucose at 8 hr,[3],93 ± 3 mg/dL
same,Animals with hemorrhagic conversion,thromboembolic stroke; co-treated with glibenclamide 1.5 μg/kg i.v. plus pump 300 μM at ½ μl/hr,1/5
same,Animals showing no evidence of hemorrhage,thromboembolic stroke; co-treated with glibenclamide,4/5
BODIPY-FL-glyburide [BODIPY-glibenclamide],Water in TTC(+) tissue of involved hemisphere,MCA stroke (MCE model) [2],82.7±1.4%
same,Mortality during 7 days after MCA stroke,MCA stroke (MCE model) [4],40%
